Test results as given in patent publication US8287923B2, “Compositions and methods for treating immune disorders” (priority 2005, dated 2012).

Tested on: normal human epidermal keratinocytes (NHEK)
Experiment: Affymetrix gene array analysis, autoantigen gene expression
Assay type: cell-based
Conditions: 100 μM
Method: The gene array experiment was performed at the Core Facility of Genomics of the Medical College of Georgia, according to the instructions of the manufacturer (Affymetrix, Santa Clara, Calif.). Briefly, NHEK and OSC2 cells treated with 100 μM EGCG for different time period were extracted for total RNA, the RNA was processed for probes and hybridized with a cDNA microarray (HuG133A, Affymetrix) which represents 22,283 human series. DNA chips were read with a Hewlett-Packard GeneArray Scanner at a resolution of […] and were analyzed with the GeneSpring software (Silicon Genetics, Redwood City, Calif.). Details of this analysis will be published elsewhere (Hsu et al., manuscript in preparation).
Gene assays provide a valuable tool for studying the broad response of cells to agents, and we have used this approach to compare the differential effects of GTPP on gene expression in NHEK and human oral squamous carcinoma cells (Hsu, et al, manuscript in preparation). […] See also Hsu, S. et al. (2005) JPET 315:805-811, which is incorporated by reference in its entirety.

O=C(O[C@@H]1Cc2c(O)cc(O)cc2O[C@@H]1c1cc(O)c(O)c(O)c1)c1cc(O)c(O)c(O)c1 [EGCG, (−)-epigallocatechin-3-gallate]
60 kDa, SS-A/Ro (212852_s_at) expression, normalized (6 h): 0.85
Ku autoantigen, 80 kDa (208642_s_at) expression, normalized (6 h): 0.96
Ku autoantigen, 80 kDa (208643_s_at) expression, normalized (6 h): 0.98
Nuclear antigen SP100 (202863_at) expression, normalized (6 h): 0.59
Nuclear antigen SP100 (202864_s_at) expression, normalized (6 h): 0.64
Nuclear antigen SP10075 kDa (213226_at) expression, normalized (6 h): 0.43
RNA polymerase 1 (202692_s-at) expression, normalized (6 h): 0.50
SS-B/La (201138_s_at) expression, normalized (6 h): 0.57
SS-B/La (201139_s_at) expression, normalized (6 h): 0.43
centromere protein C1 (20473_at) expression, normalized (6 h): 0.87
coilin (203653_s_at) expression, normalized (6 h): 0.60
coilin (203654_s_at) expression, normalized (6 h): 0.62
fodrin-α (208611_s_at) expression, normalized (6 h): 0.56
fodrin-α (215235_s_at) expression, normalized (6 h): 0.75
golgin-67 (208797_s_at) expression, normalized (6 h): 0.92
golgin-67 (208798_x_at) expression, normalized (6 h): 0.32
golgin-67 (210425_x_at) expression, normalized (6 h): 0.19
golgin-67 (213650_at) expression, normalized (6 h): 0.69
scleroderma autoantigen 1, 75 kDa (213226_at) expression, normalized (6 h): 0.43
spectrin-β non-erythrocyctic 1 (212071_s_at) expression, normalized (6 h): 0.95
thyroid autoantigen 70 kDa (Ku antigen) (200792_at) expression, normalized (6 h): 1.13
ADPRT [poly(ADP)-ribose polymerase] expression (6 h, vs time zero): 0.992 fold
ANAP12 expression (6 h, vs time zero): 0.4 fold
ANXA11 expression (6 h, vs time zero): 2.141 fold
CALR expression (6 h, vs time zero): 1.482 fold
CBARA1 expression (6 h, vs time zero): 0.498 fold
CENPA expression (6 h, vs time zero): 0.672 fold
CENPB expression (6 h, vs time zero): 0.498 fold
CENPC1 expression (6 h, vs time zero): 0.869 fold
CHD4 expression (6 h, vs time zero): 0.916 fold
COL17A1 expression (6 h, vs time zero): 1.043 fold
CTDSP1 expression (6 h, vs time zero): 1.25 fold
CTDSP2 expression (6 h, vs time zero): 0.92 fold
CTDSPL expression (6 h, vs time zero): 2.42 fold
DLAT expression (6 h, vs time zero): 1.031 fold
EPPK1 expression (6 h, vs time zero): 1.318 fold
FBL expression (6 h, vs time zero): 1.09 fold
FLJ31657 expression (6 h, vs time zero): 0.435 fold
FLNB (Filamin B, β) expression (6 h, vs time zero): 0.751 fold
FLNB (Filamin B, γ) expression (6 h, vs time zero): 0.875 fold
G22P1 (Thyroid autoantigen, 70 kDa, Ku antigen) expression (6 h, vs time zero): 1.127 fold
GMEB2 expression (6 h, vs time zero): 0.626 fold
GOLGA1 expression (6 h, vs time zero): 0.68 fold
GOLGA2 expression (6 h, vs time zero): 0.769 fold
GOLGA3 expression (6 h, vs time zero): 0.547 fold
GOLGA4 expression (6 h, vs time zero): 0.353 fold
GOLGA5 expression (6 h, vs time zero): 0.731 fold
GOLGB1 expression (6 h, vs time zero): 0.56 fold
HARS expression (6 h, vs time zero): 0.88 fold
HARSL expression (6 h, vs time zero): 0.88 fold
HSA6591 expression (6 h, vs time zero): 0.532 fold
HUMAUANTIG expression (6 h, vs time zero): 0.444 fold
IMP-2 expression (6 h, vs time zero): 0.635 fold
LAD1 expression (6 h, vs time zero): 0.954 fold
LMO4 expression (repeat 1) (6 h, vs time zero): 0.708 fold
LMO4 expression (repeat 2) (6 h, vs time zero): 1.133 fold
MGC5560 expression (repeat 1) (6 h, vs time zero): 1.646 fold
MGC5560 expression (repeat 2) (6 h, vs time zero): 2.605 fold
NS (Nucleostemin) expression (6 h, vs time zero): 0.519 fold
PDHB expression (6 h, vs time zero): 0.745 fold
PDX1 expression (6 h, vs time zero): 0.646 fold
PMSCL1, 75 kDa expression (6 h, vs time zero): 0.431 fold
PMSCL2 expression (6 h, vs time zero): 1.058 fold
POLR1B expression (6 h, vs time zero): 0.98 fold
POLR1D expression (6 h, vs time zero): 1.04 fold
POLR2A expression (repeat 1) (6 h, vs time zero): 1.80 fold
POLR2A expression (repeat 2) (6 h, vs time zero): 0.44 fold
POLR2B expression (6 h, vs time zero): 0.59 fold
POLR2C expression (6 h, vs time zero): 1.53 fold
POLR2D expression (6 h, vs time zero): 1.04 fold
POLR2E expression (6 h, vs time zero): 0.87 fold
POLR2F expression (6 h, vs time zero): 1.17 fold
POLR2G expression (6 h, vs time zero): 0.74 fold
POLR2H expression (6 h, vs time zero): 1.02 fold
POLR3C expression (6 h, vs time zero): 0.45 fold
POLR3G expression (6 h, vs time zero): 1.05 fold
PSME3 expression (6 h, vs time zero): 1.128 fold
RALY expression (6 h, vs time zero): 1.496 fold
SART1 expression (6 h, vs time zero): 1.462 fold
SLC25A16 expression (6 h, vs time zero): 1.099 fold
SNRP70 expression (6 h, vs time zero): 2.28 fold
SNRPA expression (6 h, vs time zero): 1.35 fold
SNRPB2 expression (6 h, vs time zero): 0.56 fold
SNRPB expression (repeat 1) (6 h, vs time zero): 0.76 fold
SNRPB expression (repeat 2) (6 h, vs time zero): 0.67 fold
SNRPC expression (6 h, vs time zero): 1.28 fold
SNRPD1 expression (repeat 1) (6 h, vs time zero): 0.658 fold
SNRPD1 expression (repeat 2) (6 h, vs time zero): 0.612 fold
SOX13 expression (6 h, vs time zero): 1.24 fold
SP100 expression (repeat 1) (6 h, vs time zero): 0.59 fold
SP100 expression (repeat 2) (6 h, vs time zero): 0.686 fold
SP110 expression (repeat 1) (6 h, vs time zero): 1.205 fold
SP110 expression (repeat 2) (6 h, vs time zero): 0.997 fold
SP110 expression (repeat 3) (6 h, vs time zero): 0.7 fold
SPTAN1 (α-fodrin) expression (repeat 1) (6 h, vs time zero): 0.56 fold
SPTAN1 (α-fodrin) expression (repeat 2) (6 h, vs time zero): 0.75 fold
SPTBN expression (6 h, vs time zero): 0.95 fold
SSA2 (autoantigen SS-A/Ro) expression (repeat 2) (6 h, vs time zero): 0.687 fold
SSA2 expression (repeat 1) (6 h, vs time zero): 0.739 fold
SSA2 expression (repeat 3) (6 h, vs time zero): 0.571 fold
SSA2 expression (repeat 4) (6 h, vs time zero): 0.85 fold
SSB (autoantigen La) expression (repeat 1) (6 h, vs time zero): 0.57 fold
SSB (autoantigen La) expression (repeat 2) (6 h, vs time zero): 0.427 fold
SSNA1 expression (6 h, vs time zero): 1.608 fold
SSSCA1 expression (6 h, vs time zero): 1.005 fold
STRN3 expression (6 h, vs time zero): 0.528 fold
TOP1 expression (repeat 1) (6 h, vs time zero): 0.84 fold
TOP1 expression (repeat 2) (6 h, vs time zero): 0.33 fold
UBTF expression (6 h, vs time zero): 0.501 fold
XRCC5 (Ku autoantigen, 80 kDa) expression (repeat 1) (6 h, vs time zero): 0.977 fold
XRCC5 (Ku autoantigen, 80 kDa) expression (repeat 2) (6 h, vs time zero): 0.958 fold
dJ963E22.1 expression (6 h, vs time zero): 0.723 fold
α-NAC expression (6 h, vs time zero): 0.0443 fold
60 kDa, SS-A/Ro (210438_x_at) expression, normalized (24 h): 0.88
60 kDa, SS-A/Ro (212852_s_at) expression, normalized (24 h): 0.94
